This is an account of results in patent US20030181515A1, “Methods of using kavalactone compositions” (Kava Pharmaceuticals, Inc., a Delaware corporation, priority 2001, published 2003).

“Also recorded” adds a separate entry of the source.

The experiment relates to IL-12. Put plainly: IL-12 inhibitory assay in IFNγ-primed, LPS-stimulated human PBMC (ELISA). Format: cell-based. To be noted: human PBMC primed with IFNγ, supernatants 20 h later, FIG. 1. The procedure:
This invention is based in part on the unexpected discovery that specific kavalactones inhibit production of IL-12, whose overproduction is implicated in a number of diseases and disease symptoms. The IL-12 inhibitory activity of six major kavalactones (e.g., desmethoxyyangonin, dihydrokawain, dihydromethysticin, kawain, methysticin, and yangonin) was measured using a cellular assay for determination of IL-12 cytokine inhibition. […] Thus, compositions containing one of the three active kavalactones, kawain, dihydrokawain, dihydromethysticin, or a combination thereof, are useful for treating disease or disease symptoms related to IL-12 overproduction.
Referring back to FIG. 1, six kavalactones were tested in an IL-12 inhibitory assay as follows: Lipopolysaccharide (LPS, Serratia marscencens) was obtained from Sigma (St. Louis, Mo.). Human recombinant IFNg was purchased from Boehringer Mannheim. (Mannheim, Germany). Human peripheral blood mononuclear cells were isolated by centrifugation using Ficall-Paque (Pharmacia Biotech, Uppsala, Sweden) and prepared in RPMI medium supplemented with 10% FCS and antibiotics in a 96-well plate with 1×10^6 cells/well. Human PBMC were primed with IFNγ (30 U/mL) for 16 h and then stimulated with […] of LPS in the presence of different concentrations of test compound. Cell-free supernatants were taken 20 h later for measurement of cytokines. Cell viability was assessed using the bioreduction of MTS [3-(4,5-dimethylthiazol-2-yl)-5-(3-carboxymethoxyphenyl)-2-(4-sulfophenyl)-2H-tetrazolium] (Promega, Madison, Wis.). Cell survival was estimated as the ratio of the absorbance in compound-treated groups versus compound-free control. Human IL-12 was assayed using ELISA kits (Endogen, Cambridge, Mass.), essentially according to the manufacturer's instructions. IL-12 inhibition can also be measured by other methods (e.g., in vivo, in vitro, animal models) of assaying for enzyme inhibition activity.
Background: In an ELISA, binding on a coated surface is turned into a signal by an enzyme label.

`COC1=CC(=O)O[C@@H](CCc2ccccc2)C1` [dihydrokawain]: the IL-12 inhibitory activity result is on record as “much higher IL-12 inhibitory activity relative to the other kavalactones; also recorded: exhibit IL-12 inhibitory activity”. As to `COC1=CC(=O)O[C@@H](CCc2ccc3c(c2)OCO3)C1` [dihydromethysticin], the IL-12 inhibitory activity result is “much higher IL-12 inhibitory activity relative to the other kavalactones; also recorded: exhibit IL-12 inhibitory activity”. The entry for `COC1=CC(=O)O[C@@H](/C=C/c2ccccc2)C1` [kawain] is “much higher IL-12 inhibitory activity relative to the other kavalactones; also recorded: exhibit IL-12 inhibitory activity”.
